# Patent US20210164051A1, “METHODS OF DETECTION AND ANALYSIS OF NUCLEIC ACID IN NEURAL-DERIVED EXOSOMES” (priority 2019, published 2021)
# Like-named read-outs stand apart in the source and are kept apart here.
# Experiments:
# myelinated axon fibers = details: 7 of 16 vervets exposed to BMAA; NS, p=0.0956
# tau AT8+ NFT = details: averaged across 7 cortical regions
# IbA1+ microglia = details: for IbA1+ Density / IbA1+ microglia Size: median ± SEM, n = 8
# [1] = tested on: anterior horn motor neurons
# [2] = tested on: TDP-43+ anterior horn motor neurons
# [3] = vervet spinal cord, 210 mg/kg/day oral, 140 days, median ± SEM
# [4] = lateral corticospinal tracts, Cervical Segment
# [5] = lateral corticospinal tracts, Lumbar Segment
# [6] = anterior horn, 210 mg/kg/day, 140 days, median ± SEM
# [7] = lateral corticospinal tract, stimulated by BMAA dosing
smiles,measurement,setting,value
"CNC[C@H](N)C(=O)O [BMAA, β-N-methylamino-L-alanine]",median total BMAA concentration in spinal cord tissues,"BMAA and BMAA L-serine dosing cohorts pooled, ±13.7 SE",61.4 µg/g
same,Free BMAA per gram of spinal cord tissues,[3],8.9 ± 3.9 ^NS μg/g
same,Hydrolyzed Protein Pellet BMAA per gram of spinal cord tissues,[3],0.5 ± 0.3 ^NS μg/g
same,Hydrolyzed Supernatant BMAA per gram of spinal cord tissues,[3],34.0 ± 20.5 ^NS μg/g
same,vervets with loss of myelinated axon fiber staining in the lateral corticospinal tracts,myelinated axon fibers,44%
same,increase of median cortical tau AT8+ NFT density,"tau AT8+ NFT; p<0.0001, n=8",3.1 fold
same,"density and total area covered by IbA1+ microglia, cervical compared to lumbar segments","IbA1+ microglia; BMAA-dosed primates, p=0.0039",1.5 fold
same,IbA1+ Density,IbA1+ microglia; [4],1831.8 ± 206.9 Ct
same,IbA1+ microglia Size,IbA1+ microglia; [4],15.4 ± 1.7^NS Px
same,IbA1+ Density,IbA1+ microglia; [5],1213.7 ± 151.5^NS Ct
same,IbA1+ microglia Size,IbA1+ microglia; [5],13.9 ± 1.9^NS Px
same,increase of total area covered by IbA1+ microglia vs rice flour controls,"IbA1+ microglia; lateral corticospinal tracts, cervical spinal cord, p=0.011, n=8",1.6 fold
same,increase of median density of IbA1+ microglia vs rice flour controls,"IbA1+ microglia; lateral corticospinal tracts, cervical spinal cord, p=0.048, n=8",1.7 fold
same,effect on the size of Iba1+ microglia,"IbA1+ microglia; lateral corticospinal tracts, NS, p=0.260, n=8",did not have a significant effect
same,decrease of anterior horn neuronal numbers,"[1]; BMAA 210 mg/kg/day, 140 days, p=0.0016",23%
same,greater frequency of eosinophilic neurons vs rice flour controls,"[1]; cervical spinal cord anterior horns, BMAA 210 mg/kg/day, 140 days, p=0.024",4.3 fold
same,reduction in size of eosinophilic lower motor neurons,"[1]; cervical spinal cord anterior horns, p<0.0001",40%
same,increase of median numbers of GFAP+ astroglia,"GFAP+ astroglia; anterior horn of the lumbar spinal cord, p=0.008, n=8",44%
same,increase of density of GFAP+ activated astroglia,"GFAP+ astroglia; anterior horns of the lumbar spinal cord, p=0.008",1.4 fold
same,vervets with cytoplasmic mislocalization of FUS protein,[2]; 2 of the 16 BMAA-dosed vervets,12.5%
same,vervets with neurons positive for TDP-43 cytoplasmic inclusion bodies,[2]; 12 of 16 vervets fed BMAA,75%
same,"number of TDP-43+ motor neurons per region of interest, All Spinal Cord Segments",[2]; [6],4.5 ± 1.7
same,"number of TDP-43+ motor neurons per region of interest, Cervical Segment",[2]; [6],3.0 ± 1.9
same,"number of TDP-43+ motor neurons per region of interest, Lumbar Segment",[2]; [6],3.0 ± 3.1
same,mean density and distribution of TDP-43+ inclusions vs controls,"[2]; toxin-dosed vervets, p=0.024",5 fold
N[C@@H](CO)C(=O)O [L-serine],effect of L-serine coadministration on median concentrations of BMAA in spinal cord,any fraction of the vervet spinal cord,did not significantly reduce
same,attenuation of BMAA-induced tau NFT density by coadministration of L-serine,tau AT8+ NFT,40%
same,attenuation of mean Iba1+ microglia distribution by coadministration of L-serine,IbA1+ microglia; [7],32%
same,reduction of total number of GFAP+ astroglia by coadministration of L-serine,"GFAP+ astroglia; anterior horn of the lumbar spinal cord, BMAA + L-serine both 210 mg/kg/day, p=0.008",21%
same,reduction of total area of GFAP+ astroglia by coadministration of L-serine,"GFAP+ astroglia; anterior horn of the lumbar spinal cord, automated image analysis, p=0.007",20%
same,attenuation of CD68+ microglial expression by coadministration of L-serine,CD68+ microglia; [7],24%
same,"effect of L-serine coadministration on CD68+ microglial nodule numbers, size and expression intensity","CD68+ microglia; p=0.01, n=8",reduced
